Measured values: patent US6723897B2, “Methods for controlling gibberellin levels” (Monsanto Technology, LLC, priority 1998, dated 2004)

Legend:
[1] = system: wild-type soybean line A3237; assay: Experiment I greenhouse test, seed imbibition, wild-type soybean; conditions: 0.25 mg/ml; seeds imbibed 5 hours
Experimental: Compounds are first prepared as 25 mg/ml solutions in ethanol as described above, and then diluted into 40 ml of water to prepare the final 0.25 mg/ml treatment solutions. Visual observations on solubilities (milky, clear, etc.) of the treatment solutions are noted. The treatment solutions are divided into two 20 ml portions, each in 50 ml plastic centrifuge tubes. In addition to treating seeds with solutions containing the test compounds, untreated seeds and seeds imbibed in ethanol-water solution (300 μl ethanol in 30 mls of water) are also included in this experiment as controls. […]
(§1) After imbibition, seeds are removed from the test tubes, placed on wax paper to dry, and planted in bread pans containing farm soil amended with fertilizer at 20 seeds/pan. Seeds are covered with 0.5″ of vermiculite. Pans are transferred to the greenhouse, which had day/night temperatures of 86/68° F. (30/20° C.), and subirrigated. Illumination is at a light intensity of 300-400 μmolm^−2s^−1 photosynthetic photon flux; 16 hours light/8 hours dark. Subsequent waterings are also through sub-irrigation until the test is terminated three weeks later. Observations included the number of dwarf, intermediate, and tall plants; plant height; uniformity of rescue; and any visual effects.

[2] = system: constitutively GA-deficient transgenic dwarf soybeans (line 719); assay: Summary of first two greenhouse experiments, rescue of GA-deficient soybeans; type: in vivo, Glycine max; parameters: key: +: transgenic soybeans are rescued; 0: transgenic soybeans are not rescued
Experimental: Compounds are first prepared as 25 mg/ml solutions in ethanol as described above, and then diluted into 40 ml of water to prepare the final 0.25 mg/ml treatment solutions. Visual observations on solubilities (milky, clear, etc.) of the treatment solutions are noted. The treatment solutions are divided into two 20 ml portions, each in 50 ml plastic centrifuge tubes. In addition to treating seeds with solutions containing the test compounds, untreated seeds and seeds imbibed in ethanol-water solution (300 μl ethanol in 30 mls of water) are also included in this experiment as controls. In the latter case, 20 seeds are imbibed in 30 mls of solution for six hours.
as §1, with “Two soybean varieties are selected for testing: constitutively GA-deficient transgenic dwarf soybean line 719 (plasmid pMON29801, constitutive FMV promoter/asCPScc; which is a mixture of 719−2 and 719+17), and A3237, the wild-type parent material. […] After” for “After”
All compounds are tested at final concentrations of 0.25, 0.025, and 0.0025 mg/ml except for GA9, which is tested at 0.125, 0.0125, and 0.00125 mg/ml. (The compounds are tested in Experiment I at only one concentration, i.e., 0.25 mg/ml). Test tubes contained […] of ethanol solution per tube. Final volumes are made up to 30 ml with deionized water. After shaking, the treatment solutions (15 ml each) are transferred to each of two 50 ml test tubes. Treatments 1 to 27 are performed on wild-type line A3237; treatments 28 to 54 are performed on constitutively GA-deficient transgenic dwarf soybean line 719 (a mixture of 719−2 and 719+17). Twenty seeds are used in each treatment. Dry seed, ethanol/water-imbibed seed (1% ethanol in water, v/v), and water-imbibed seeds are included as controls. Seeds are imbibed for 6 hours in the test solutions, then planted in bread pans containing Metromix 350 (The Scotts Company, Marysville, Ohio), and covered with 0.5″ Metro-mix. Covered pans are transferred to the greenhouse and subirrigated. Illumination is at a light intensity of 300-400 μmolm^−2s^−1 photosynthetic photon flux; 16 hours light/8 hours dark. Subsequent waterings are also through sub-irrigation until the test is terminated three weeks later. Observations included the number of dwarf, intermediate, and tall plants; plant height; uniformity of rescue; and any visual effects. Digital photographs are also taken.

[3] = system: GA-deficient transgenic soybean line 719 (R5); assay: Hilum treatment of soybean seeds, seedling growth and development, GA-deficient soybean; type: in vivo, Glycine max; parameters: key to Emergence timing / Hypocotyl length (6 DAP) / 1st internode length (12 DAP) / 3rd internode length (20 DAP) / 2nd internode length (12 DAP): pos: emergence faster/stem segment longer than controls; 0: emergence timing/stem segment length similar to controls; neg: emergence slower/stem segment shorter than controls; conditions: for 1st internode length (12 DAP) / Emergence timing / Hypocotyl length (6 DAP): single rate per compound 8.3-16.5 μg/seed; for 2nd internode length (12 DAP) / 3rd internode length (20 DAP): single rate per compound 9.7-16.5 μg/seed; for stem elongation past the first internode: initial seed dose approximately 10 μg/seed
Experimental: In the previous experiments, the effect of various GA compounds on transgenic, GA-deficient and wild-type soybean is evaluated by treating seeds with these compounds via imbibition. Several of these compounds are not completely soluble in water, which limited the interpretation of their utility in rescuing GA-deficient dwarf plants. The purpose of this experiment is to reevaluate selected, previously tested compounds, and additional compounds, by introducing them to the seed via the hilum. As shown by the results presented below, direct application of small quantities of GA compounds dissolved in an organic solvent to the hilum is an effective method of treating soybean seeds. As in the previously described experiments, comparison is made between activity on GA-deficient soybean seedlings and normal (wild-type) seedlings. […] soybean seeds are supplied by Asgrow Seed Company (Des Moines, Iowa). Seed of GA-deficient transgenic soybean line 719 is created by transformation of […] soybean with pMON29801 (FMV/antisense CPScc). Fifth generation seed (R5) is used for these experiments. […] When multiple droplets are applied, each 1 μl droplet is allowed to dry before subsequent droplets are added. Ethanol minus compound is used a treatment control. […] (29° C.) and 75° F. (24° C.), respectively. Emergence timing is measured by counting the number of emerged seedlings at different times after planting. Emergence is defined as the presence of cotyledons raised to soil level or above. […] To assess the ability of a seed treatment to deliver biological activity beyond the first internode, measurements are taken on selected treatments after prolonged growth and development.

[4] = 0.0025 mg/ml solution (ethanol-water)
[5] = 0.025 mg/ml solution (ethanol-water)
[6] = 0.25 mg/ml solution (ethanol-water)
[7] = L719, hilum treatment, rate response

| Structure (SMILES) | Observation on Wild-Type Line A3237 [1] | Rescue of GA-deficient soybeans [2, 4] | Rescue of GA-deficient soybeans [2, 5] | Rescue of GA-deficient soybeans [2, 6] | Lowest rate where biological activity is observed, 1st internode length (10 DAP) [3, 7] | Lowest rate where biological activity is observed, emergence timing [3, 7] | Lowest rate where biological activity is observed, hypocotyl length (5 DAP) [3, 7] | 1st internode length (12 DAP) ([3]; L719, hilum treatment) | Emergence timing ([3]; L719, hilum treatment) | Hypocotyl length (6 DAP) ([3]; L719, hilum treatment) | 2nd internode length (12 DAP) ([3]; L719, hilum treatment) | 3rd internode length (20 DAP) ([3]; L719, hilum treatment) | stem elongation past the first internode ([3]; hilum) | Lowest rate where biological activity is observed, 3rd internode length (20 DAP) [3, 7] | rate giving increased internode elongation at internode number 3 ([3]; hilum) | biological activity on the first internode of line 719 compared to GA3 and GA9 ([3]; hilum, rate response) | Rescue of GA-deficient soybeans ([2]; 0.00125 mg/ml solution (ethanol-water)) | Rescue of GA-deficient soybeans ([2]; 0.0125 mg/ml solution (ethanol-water)) | Rescue of GA-deficient soybeans ([2]; 0.125 mg/ml solution (ethanol-water)) | effect on emergence timing and hypocotyl length ([3]; single rate, hilum) |
| --- | --- | --- | --- | --- | --- | --- | --- | --- | --- | --- | --- | --- | --- | --- | --- | --- | --- | --- | --- | --- |
| C=C1C[C@]23C[C@@]1(O)CC[C@H]2[C@@]12C=C[C@H](O)[C@@](C)(C(=O)O1)[C@H]2[C@@H]3C(=O)O [GA3, gibberellic acid] | 3 | + | + | + | 10 μg/seed | 0.1 μg/seed | 0.1 μg/seed | pos | pos | pos | 0 | 0 | not active beyond the first internode |  |  |  |  |  |  |  |
| C=C1C[C@]23C[C@@]1(O)CC[C@H]2[C@@]12C=C[C@H](OC(C)=O)[C@@](C)(C(=O)O1)[C@H]2[C@@H]3C(=O)O [GA3-3-acetate] | 3 | + | + | + |  |  |  | pos | pos | pos |  |  |  |  |  |  |  |  |  |  |
| C=C1C[C@]23C[C@@]1(O)CC[C@H]2[C@@]12CC=C[C@@](C)(C(=O)O1)[C@H]2[C@@H]3C(=O)O [GA5] | 4 | + | + | + | 1 μg/seed | 1 μg/seed | 0.1 μg/seed | pos | pos | pos | pos | pos | measurable increases in internode length up to the third internode | >1 μg/seed | greater than or equal to 1 μg/seed | approximately 10 times more |  |  |  |  |
| C=C1C[C@]23C[C@H]1CC[C@H]2[C@@]12CCC[C@@](C)(C(=O)O1)[C@H]2[C@@H]3C(=O)O [GA9] | 3 |  |  | + | 10 μg/seed | 0.1 μg/seed | 0.1 μg/seed | pos | pos | pos | 0 | 0 |  |  |  |  | 0 | + | + |  |
| C=C1C[C@]23C[C@H]1CC[C@H]2[C@]1(C)CCC[C@@](C)(C(=O)O)[C@H]1[C@@H]3C(=O)O [GA12] | −1 | 0 | + | + |  |  |  | 0 | 0 | neg |  |  |  |  |  |  |  |  |  | inhibited emergence timing and hypocotyl length |
| C=C1C[C@@]23CC[C@H]4[C@@](C)(CCC[C@@]4(C)C(=O)O)[C@@H]2CC[C@@H]1C3 [kaurenoic acid] | 0 | 0 | 0 |  |  |  |  | 0 | pos | 0 |  |  |  |  |  |  |  |  |  |  |
